Paper PMC3282623, “High-pressure-induced water penetration into 3-isopropylmalate dehydrogenase” (Acta Crystallographica Section D: Biological Crystallography, 2012)

Molecular target: T1, SoIPMDH (3-isopropylmalate dehydrogenase from Shewanella oneidensis MR-1) (Shewanella oneidensis, UniProt Q8E9N3)
T1 construct: gene leuB; N-terminally His6-tagged (pQE-80L, BamHI/HindIII), expressed in E. coli BL21-CodonPlus(DE3)-RIL; tag removal not mentioned; homodimer
Test: X-ray crystallography of the complex
Format: binding
Details: active site, closed dimer; calcium in active site; 10 mM IPM, 10 mM MgCl2, 200 mM calcium acetate, pH 7.0, room temperature, 0.1 MPa (also 160-650 MPa: 3vl2, 3vl3, 3vl4, 3vl6, 3vl7)

T1 sequence (Q8E9N3 2-364): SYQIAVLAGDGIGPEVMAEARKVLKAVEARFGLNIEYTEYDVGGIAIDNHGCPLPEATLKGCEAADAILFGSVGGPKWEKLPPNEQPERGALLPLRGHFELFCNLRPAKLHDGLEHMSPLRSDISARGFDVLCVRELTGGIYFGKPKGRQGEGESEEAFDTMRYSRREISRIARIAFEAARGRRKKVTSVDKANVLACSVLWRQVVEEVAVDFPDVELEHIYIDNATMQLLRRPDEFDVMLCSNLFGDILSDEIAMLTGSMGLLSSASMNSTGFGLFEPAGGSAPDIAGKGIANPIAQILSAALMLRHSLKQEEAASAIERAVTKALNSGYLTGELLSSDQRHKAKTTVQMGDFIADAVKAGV

In the case of `CC(C)[C@H](C(=O)O)[C@@H](O)C(=O)O` [3-isopropylmalate], the “X-ray crystallography of the complex” value is reported as “the SoIPMDH dimer was crystallized in complex with its substrate, the IPM molecule”.
